# Test results published in patent US12011444B2, “N-substituted indole derivatives as PGE2 receptor modulators” (Idorsia Pharmaceuticals Ltd, priority 2015, dated 2024).
# What was measured:
# [1] = biological target: EP4 (Homo sapiens (Human), UniProt P35408); assay: hEP4 cAMP assay (BT549 breast cancer cells, HTRF cAMP); type: cell-based; settings: antagonistic activity; mean values where measured multiple times
# Procedure: Plate is pre-incubated 45 minutes at room temperature. Subsequently, 2.5 microliters of PGE2 (final conc. 6 nM) are transferred into the assay plate. Plate is incubated 30 minutes at room temperature.
# [2] = biological target: EP2 (Homo sapiens (Human), UniProt P43116);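 note: antagonism of PGE2-stimulated cAMP accumulation in SF295 human glioblastoma cells with endogenous EP2, cAMP read by HTRF, expressed relative to DMSO control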
# Sequence of EP2 (P43116 whole entry): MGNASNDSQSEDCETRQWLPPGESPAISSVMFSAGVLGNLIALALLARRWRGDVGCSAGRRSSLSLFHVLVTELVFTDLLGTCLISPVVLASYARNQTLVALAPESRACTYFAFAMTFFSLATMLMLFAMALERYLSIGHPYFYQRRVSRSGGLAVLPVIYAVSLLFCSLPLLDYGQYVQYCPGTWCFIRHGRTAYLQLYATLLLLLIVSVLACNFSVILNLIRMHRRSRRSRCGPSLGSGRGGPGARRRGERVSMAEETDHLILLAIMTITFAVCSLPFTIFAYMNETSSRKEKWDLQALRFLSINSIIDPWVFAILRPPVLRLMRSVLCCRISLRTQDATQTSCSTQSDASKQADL
# Sequence of EP4 (P35408 whole entry): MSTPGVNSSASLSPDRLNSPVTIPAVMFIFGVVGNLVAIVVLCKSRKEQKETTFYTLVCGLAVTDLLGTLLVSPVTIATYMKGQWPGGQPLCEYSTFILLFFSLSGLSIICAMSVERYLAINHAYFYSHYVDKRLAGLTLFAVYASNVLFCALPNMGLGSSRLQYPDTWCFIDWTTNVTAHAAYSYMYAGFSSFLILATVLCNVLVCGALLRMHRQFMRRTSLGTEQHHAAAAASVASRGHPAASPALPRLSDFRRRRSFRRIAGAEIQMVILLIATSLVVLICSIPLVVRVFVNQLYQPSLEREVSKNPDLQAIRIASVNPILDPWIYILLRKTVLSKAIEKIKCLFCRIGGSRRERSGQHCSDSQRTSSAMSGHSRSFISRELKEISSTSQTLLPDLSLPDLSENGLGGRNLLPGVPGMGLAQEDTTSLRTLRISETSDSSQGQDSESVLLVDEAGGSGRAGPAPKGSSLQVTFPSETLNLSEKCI
structure (smiles),measurement,setting,value
Cc1noc(-c2ccc(-c3cc(NCCn4c(C)cc5c(C)ccc(F)c54)ncn3)cc2)c1C(=O)O [compound 477],IC50,[1],574 nM
same,IC50,[2],122 nM
"COc1ccc(F)c2c1cc(C)n2CCNc1cc(-c2ccc(C(=O)O)c(N3CCCC3)c2)ncn1 [compound 478, 4-{6-[2-(7-Fluoro-4-methoxy-2-methyl-indol-1-yl)-ethylamino]-pyrimidin-4-yl}-2-pyrrolidin-1-yl-benzoic acid]",IC50,[1],665 nM
same,IC50,[2],11 nM
Cc1ccc(F)c2c1cc(C)n2CCNc1cc(-c2ccc(C(=O)O)c(NS(C)(=O)=O)c2)ncn1 [compound 479],IC50,[1],233 nM
same,IC50,[2],127 nM
CCOc1cc(-c2cc(NCCn3c(C#N)cc4c(OC)cc(F)cc43)ncn2)ccc1C(=O)O [compound 480],IC50,[1],75 nM
same,IC50,[2],26 nM
Cc1cc(F)cc2c1cc(C#N)n2CCNc1cc(-c2ccc(C(=O)O)c(CC(C)C)c2)ncn1 [compound 481],IC50,[1],112 nM
same,IC50,[2],61 nM
Cc1cc2c(F)ccc(C#N)c2n1CCNc1cc(-c2ccc(C(=O)O)c(CC(C)C)c2)ncn1 [compound 482],IC50,[1],986 nM
same,IC50,[2],686 nM
CCNc1cc(-c2cc(NCCn3c(C)cc4c(OC)ccc(F)c43)ncn2)cc(F)c1C(=O)O [compound 483],IC50,[1],98 nM
same,IC50,[2],4 nM
CCCCOc1cc(-c2cc(NCCn3c(C)cc4c(OC)cccc43)ncn2)ccc1C(=O)O [compound 484],IC50,[1],117 nM
same,IC50,[2],1 nM
COc1cccc2c1cc(C)n2CCNc1cc(-c2ccc(C(=O)O)c(OCC(C)C)c2)ncn1 [compound 485],IC50,[1],245 nM
same,IC50,[2],3 nM
CCOc1cc(-c2cc(NCCn3c(C)cc4c(OC)c(F)cc(Cl)c43)ncn2)ccc1C(=O)O [compound 486],IC50,[1],325 nM
same,IC50,[2],91 nM
CCOc1cc(-c2cc(NCCn3c(C)cc4c(OC)cc(F)c(F)c43)ncn2)ccc1C(=O)O [compound 487],IC50,[1],76 nM
same,IC50,[2],49 nM
CCOc1cc(-c2cc(NCCn3c(C)cc4c(OC)ccc(Cl)c43)ncn2)cc(Cl)c1C(=O)O [compound 488],IC50,[1],219 nM
same,IC50,[2],70 nM
CCOc1cc(-c2cc(NCCn3c(C)cc4c(OC)ccc(F)c43)ncn2)cc(Cl)c1C(=O)O [compound 489],IC50,[1],103 nM
same,IC50,[2],25 nM
CCOc1cc(-c2cc(NCCn3c(C)cc4c(OC)ccc(F)c43)ncn2)cc(F)c1C(=O)O [compound 490],IC50,[1],165 nM
same,IC50,[2],17 nM
CCOc1cc(-c2cc(NCCn3c(C)cc4c(OC)c(Cl)cc(F)c43)ncn2)ccc1C(=O)O [compound 491],IC50,[1],707 nM
same,IC50,[2],765 nM
CCOc1cc(-c2cc(NCCn3c(C)cc4c(OC)cc(F)cc43)nc(C)n2)ccc1C(=O)O [compound 492],IC50,[1],626 nM
same,IC50,[2],63 nM
CCCOc1cc(-c2cc(NCCn3c(C)cc4c(OC)cc(F)cc43)ncn2)ccc1C(=O)O [compound 493],IC50,[1],119 nM
same,IC50,[2],21 nM
CCOc1cc(-c2cc(NCCn3c(C)cc4c(OC)ccc(F)c43)nc(C)n2)ccc1C(=O)O [compound 494],IC50,[1],618 nM
same,IC50,[2],25 nM
CCCOc1cc(-c2cc(NCCn3c(C)cc4c(OC)ccc(Cl)c43)ncn2)ccc1C(=O)O [compound 495],IC50,[1],350 nM
same,IC50,[2],21 nM
CCCOc1cc(-c2cc(NCCn3c(C)cc4c(OC)ccc(F)c43)ncn2)ccc1C(=O)O [compound 496],IC50,[1],99 nM
same,IC50,[2],8 nM
CCCOc1cc(-c2cc(NCCn3c(C)cc4c(OC)cccc43)ncn2)cc(Cl)c1C(=O)O [compound 497],IC50,[1],168 nM
same,IC50,[2],11 nM
CCCOc1cc(-c2cc(NCCn3c(C)cc4c(OC)cccc43)ncn2)cc(F)c1C(=O)O [compound 498],IC50,[1],609 nM
same,IC50,[2],20 nM
COc1cccc2c1cc(C)n2CCNc1cc(-c2ccc(C(=O)O)c(OC(F)(F)F)c2)ncn1 [compound 499],IC50,[1],714 nM
same,IC50,[2],6 nM
Cc1cc2c(F)c(F)cc(Cl)c2n1CCNc1cc(-c2ccc(C(=O)O)c(SC(C)C)c2)ncn1 [compound 500],IC50,[1],816 nM
same,IC50,[2],17 nM
Cc1c(F)cc(F)c2c1cc(C)n2CCNc1cc(-c2ccc(C(=O)O)c(CC(C)C)c2)ncn1 [compound 501],IC50,[1],69 nM
same,IC50,[2],42 nM
Cc1cc(F)c(F)c2c1cc(C)n2CCNc1cc(-c2ccc(C(=O)O)c(CC(C)C)c2)ncn1 [compound 502],IC50,[1],114 nM
same,IC50,[2],149 nM
Cc1nc(NCCn2c(C)cc3c(C)cc(F)cc32)cc(-c2ccc(C(=O)O)c(CC(C)C)c2)n1 [compound 503],IC50,[1],499 nM
same,IC50,[2],58 nM
Cc1c(F)cc(Cl)c2c1cc(C)n2CCNc1cc(-c2ccc(C(=O)O)c(SC(C)C)c2)ncn1 [compound 504],IC50,[1],535 nM
same,IC50,[2],103 nM
Cc1cc2c(F)cc(F)c(F)c2n1CCNc1cc(-c2ccc(C(=O)O)c(CC(C)C)c2)ncn1 [compound 505],IC50,[1],671 nM
same,IC50,[2],21 nM
Cc1cc2c(F)c(F)cc(F)c2n1CCNc1cc(-c2ccc(C(=O)O)c(CC(C)C)c2)ncn1 [compound 506],IC50,[1],113 nM
same,IC50,[2],12 nM
COc1ccc(C)c2c1cc(C)n2CCNc1cc(-c2ccc(C(=O)O)c(CC(C)C)c2)ncn1 [compound 507],IC50,[1],163 nM
same,IC50,[2],18 nM
Cc1ccc(F)c2c1cc(C)n2CCNc1cc(-c2ccc(C(=O)O)c(OC(F)(F)F)c2)ncn1 [compound 508],IC50,[1],583 nM
same,IC50,[2],37 nM
COc1c(F)cc(Cl)c2c1cc(C)n2CCNc1cc(-c2cc(F)c(C(=O)O)c(SC)c2)ncn1 [compound 509],IC50,[1],684 nM
same,IC50,[2],110 nM
Cc1c(F)cc(F)c2c1cc(C)n2CCNc1cc(-c2ccc(C(=O)O)c(OC(F)F)c2)ncn1 [compound 510],IC50,[1],216 nM
same,IC50,[2],20 nM
CCCc1cc(-c2cc(NCCn3c(C)cc4c(OC)cc(Cl)cc43)ncn2)cc(F)c1C(=O)O [compound 511],IC50,[1],158 nM
same,IC50,[2],18 nM
CCCc1cc(-c2cc(NCCn3c(C)cc4c(OC)ccc(Cl)c43)ncn2)cc(F)c1C(=O)O [compound 512],IC50,[1],253 nM
same,IC50,[2],21 nM
CCCc1cc(-c2cc(NCCn3c(C)cc4c(OC)ccc(Cl)c43)ncn2)cc(Cl)c1C(=O)O [compound 513],IC50,[1],130 nM
same,IC50,[2],24 nM
CCCc1cc(-c2cc(NCCn3c(C)cc4c(OC)ccc(F)c43)ncn2)cc(Cl)c1C(=O)O [compound 514],IC50,[1],56 nM
same,IC50,[2],5 nM
CCCc1cc(-c2cc(NCCn3c(C)cc4c(OC)ccc(F)c43)ncn2)cc(F)c1C(=O)O [compound 515],IC50,[1],69 nM
same,IC50,[2],8 nM
CCCc1cc(-c2cc(NCCn3c(C)cc4cc(OC)cc(F)c43)ncn2)cc(F)c1C(=O)O [compound 516],IC50,[1],451 nM
same,IC50,[2],324 nM
CCCc1cc(-c2cc(NCCn3c(C)cc4c(OC)c(F)ccc43)ncn2)cc(Cl)c1C(=O)O [compound 517],IC50,[1],373 nM
same,IC50,[2],97 nM
CCCc1cc(-c2cc(NCCn3c(C)cc4c(OC)cc(Cl)cc43)ncn2)cc(Cl)c1C(=O)O [compound 518],IC50,[1],40 nM
same,IC50,[2],11 nM
CCCc1cc(-c2cc(NCCn3c(C)cc4c(OC)cc(F)cc43)ncn2)cc(Cl)c1C(=O)O [compound 519],IC50,[1],34 nM
same,IC50,[2],5 nM
CCCc1cc(-c2cc(NCCn3c(C)cc4c(OC)c(F)ccc43)ncn2)cc(F)c1C(=O)O [compound 520],IC50,[1],482 nM
same,IC50,[2],82 nM
